Values of other authors, collected in patent US5831004A, “Inhibitors of metalloproteases, pharmaceutical compositions comprising same and methods of their use” (Affymax Technologies N.V., priority 1995, dated 1998).
pIC50: −log10 of the molar value.

Target: T1, human rheumatoid synovial collagenase (Homo sapiens, UniProt P03956)
T1 sequence (P03956 100-469): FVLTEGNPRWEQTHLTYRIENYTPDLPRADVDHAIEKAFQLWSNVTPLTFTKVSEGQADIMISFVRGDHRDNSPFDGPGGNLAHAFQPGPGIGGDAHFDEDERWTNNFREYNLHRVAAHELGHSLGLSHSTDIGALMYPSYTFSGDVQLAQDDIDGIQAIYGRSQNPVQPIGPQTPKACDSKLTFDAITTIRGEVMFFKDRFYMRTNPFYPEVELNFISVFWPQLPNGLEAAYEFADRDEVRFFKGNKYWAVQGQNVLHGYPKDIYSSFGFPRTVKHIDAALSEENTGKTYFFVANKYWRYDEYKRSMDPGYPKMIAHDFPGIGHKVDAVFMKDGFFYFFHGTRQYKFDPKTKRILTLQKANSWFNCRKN
Settings: cited from earlier work

CNC(=O)[C@H](Cc1ccc(OC)cc1)NC(=O)[C@H](CC(C)C)NC(CCNC(=O)OCc1ccccc1)C(=O)O (stereo partly drawn) [N-[3-(benzyloxy-carbonyl)amino-1-carboxy-n-propyl]-L-leucyl-O-methyl-L-tyrosine, N-methylamide]
pIC50: > 5.10
